Results on one substance are retold here after patent US20250129370A1, “METHOD FOR REDUCING HEPATIC TRIGLYCERIDES” (ADAERATA, LIMITED PARTNERSHIP, priority 2022, published 2025).

One data set concerns PCSK7 mRNA. As to the kind of experiment: PCSK7 mRNA qPCR after miRNA overexpression in HEK293T cells. Format: cell-based, human. Conditions: 48 hours after transfection. Here is the method:
RNA was isolated from the cells with the TRIzol™ Reagent (Invitrogen, USA) according to the manufacturer's instructions. The RNA samples were treated with RNase-free DNase I (Fermentas, USA) to eliminate any possible DNA contamination. Reverse transcription was performed using the PrimeScript™ First Strand cDNA Synthesis Kit (Takara, Japan) following the manufacturer's protocol. Briefly, one unit of the DNase I enzyme, 1 μL of a buffer, and 1 μg of total RNA were incubated for 30 minutes at 37° C. Then, 1 μL of 50 mM EDTA was added for enzyme inactivation and incubated at 65° C. for 10 minutes. Subsequently, 5 μL of DNase-treated RNA was added to the mix of 0.5 μL of the reverse-transcriptase enzyme, 2 μL of the reverse-transcriptase buffer, and 1 μL of a random hexamer and incubated for 15 minutes at 37° C., followed by 5 seconds at 85° C. for enzyme inactivation. Stem-loop RT-qPCR method was applied for evaluating the expression of miRNAs (Kramer, 2011). […]
All the reactions were repeated in duplicates. Next, melt curves were analyzed, with the mean threshold cycles used for further analyses. The relative expressions of the miRNAs and PCSK7 to RNU48 small nuclear RNA and/or GAPDH and β2m were calculated, respectively, via the 2-ΔΔCt method. […]

A further data set concerns human PC7. In words: Western blot of overexpressed PC7 protein in Huh7 cells co-transfected with miRNA vectors. Format: cell-based. Here is the method:
In the next step, the effect of miR-125a-5p on PC7 function was determined. First, the miR-125a-5p-overexpressing vector and its related mock plasmids were co-transfected with the pIRES vector (Invitrogen, USA), containing the full length of cDNA encoding the PCSK7 mRNA with the complete 3′-UTR in Huh7 cells. The western blot analysis was performed 48 hours after transfection. Thereafter, the impact of miR-125a-5p on the enzymatic function of PC7 was assessed by co-transfecting Huh7 cells with the miR-125a-5p-overexpressing vector, with that coding for the full length of PCSK7, and a plasmid encoding hTfR1 (Guillemot et al., 2013; Durand et al., 2020). […]
Subsequently, proteins were isolated with an ice-cold RIPA buffer (1×), comprising 50 mM of Tris hydrochloride (pH 8), 150 mM of sodium chloride, 0.1% sodium dodecyl sulfate, 1% Nonidet P40, 0.25% sodium deoxycholate, and a cocktail of protease inhibitors (Roche, Oakville, ON, Canada). […] Both PC7 and TfR1 were C-terminally tagged with V5 and detected with a V5-monoclonal antibody (Invitrogen) and membranes were incubated with appropriate primary and secondary antibodies, as reported (Guillemot et al., 2013). Subsequently, immunoreactive bands (the signal) were visualized with an enhanced chemiluminescent reaction kit (Bio-Rad, USA) and recorded via chemiluminescence. […]
In general terms: A western blot detects proteins with antibodies after separation by electrophoresis.

Consider “miR-125a-5p: miRNA targeting PCSK7 3′-UTR and exons 14 and 15, overexpressed from pEGFP-C1 precursor vector (UCCCUGAGACCCUUUAACCUGUGA; miRNA expressed from a pEGFP-C1 precursor vector, further chemistry not given here)”, for which the “reduction in PCSK7 mRNA levels” value in the data set with PCSK7 mRNA is around 25%. Besides, the “fall of overexpressed PC7 protein levels” value in the data set with human PC7 (Huh7, 48 hours post-transfection, vs mock (pEGFP-C1) and miR-224-5p controls) is recorded as around 80%. In the data set on human PC7 (Huh7, PC7:miR-125a-5p DNA ratios 1:2, 1:3 and 1:5, all three ratios), the “decrease of PC7 protein levels” value was above 80%.
